Tests used:
[1] = Particle characteristics of the prepared formulation by particle size analyzer (Dynamic Light Scattering, DLS); assay type: physicochemical; settings: mRNA formulation; lipid compound:DMG-PEG:DSPC:Cholesterol=50:1.5:10:38.5; N/P ratio 10; buffer exchanged to PBS
Description: (§1) The required amounts of the raw materials were mixed in order to meet the N/P ratio (amine group of lipid/phosphate group of mRNA) of 10 and each compound of formulas A to V:DMG-PEG:DSPC:Cholesterol=50:1.5:10:38.5. Ethanol was added to the ethanol layer so that the molecular total of all raw materials was within 12.5 mM, and the aqueous phase and ethanol phase were mixed maintaining a volume ratio of 3:1. After the mixing, to reduce the total ethanol content, buffer exchange was performed as follows: The mixture solution was concentrated by centrifugation at 4,000 rpm to 1/3 using an Amicon-Ultra tube filter (Merk Millipore, UFC505096 or UFC805024, pore size: 50K, volume: 0.5 mL or 4 mL), then diluted with three times the volume of PBS and centrifuged to concentrate. This process was repeated six times to exchange the buffer.
(§2) The more concrete procedure is as follows: • 1) Two autoclaved tubes were prepared (tubes (A) and (B)). • 2) In tube (A), each compound of formulas A to V, DSPC, cholesterol and DMG-PEG in molar quantities calculated according to the experimental conditions were sequentially added and mixed by vortexing. • 3) In the ethanol phase, when necessary, ethanol was added so that the molecular total of all raw materials was within 12.5 mM. • 4) In tube (B), mRNA and 20 mM sodium acetate buffer (pH 4.6) (=prepared by diluting with 3M sodium acetate buffer to 20 mM and titrating to pH 4.6 using 1M HCl) were mixed. At that time, the ratio was calculated and added so that the aqueous phase was total three times the amount of the ethanol phase. • 5) Mixing of Tube (A) and Tube (B) was performed using a Microfluidics (Ignite, Precision Nanosystem) device. Microfluidics operating conditions were FRR (Flow Rate Ratio) of C:R=3:1 and TRR (Total Flow Rate) of 12 mL/min. • 6) The resulting mixture from step 5) was concentrated by centrifugation at 4,000 rpm to 1/3 using an Amicon-Ultra tube filter (50K), then diluted 3-fold with PBS and concentrated by centrifugation. This process was repeated 6 times for concentration to the desired volume.
(§3) • 1) For the prepared formulation, particle characteristics (i.e., Zeta-average particle size (Z-average), polydispersity index (PDI), and zeta-potential) were confirmed using a particle size analyzer (Dynamic Light Scattering, DLS), and the results are shown in Table 1 below. • 2) For the prepared formulation, mRNA encapsulation efficiency was confirmed through Ribo-green assay, and the results are shown in Table 1 below.

[2] = system: mRNA; test: mRNA encapsulation efficiency of the prepared formulation by Ribo-green assay; assay type: physicochemical; settings: lipid compound:DMG-PEG:DSPC:Cholesterol=50:1.5:10:38.5, N/P ratio 10, buffer exchanged to PBS
Description: as §1, §2, §3

Compound | PDI (PI) [1] | Z-average [1] | Zeta-potential [1] | Encapsulation efficiency [2]
CCCCCCC(CCCCCC)COC(=O)CCCCCNC(=O)CCN(C)CCCN(C)CCC(=O)NCCCCCC(=O)OCC(CCCCCC)CCCCCC [Example 5] | 0.156 ± 0.009 | 137.5 ± 1.364 nm | -6.66 ± 0.365 mV | > 96.9%
CCCCC/C=C\C/C=C\CCCCCCCCOC(=O)CCCCCNC(=O)CCN(C)CCCN(C)CCC(=O)NCCCCCC(=O)OCCCCCCCC/C=C\C/C=C\CCCCC [Example 21] | 0.350 ± 0.009 | 120.0 ± 4.251 nm | 4.43 ± 0.746 mV | > 93.50%
CCCCCCCCC(CCCCCC)COC(=O)CCCCCNC(=O)CCN(CCCN(C)C)CCC(=O)NCCCCCC(=O)OCC(CCCCCC)CCCCCCCC (centres unmarked) [Example 18] | 0.199 ± 0.007 | 118.6 ± 0.565 nm | 10.96 ± 1.293 mV | > 93.75%
CCCCCCCCCOC(=O)CCCCCNC(=O)CCN(CCCN(C)C)CCC(=O)NCCCCCC(=O)OCCCCCCCCC [Example 17] | 0.167 ± 0.009 | 127.3 ± 0.955 nm | 17.22 ± 3.314 mV | > 93.75%
CCCCCCCCC(CCCCCC)COC(=O)CCCCCNC(=O)CCN(C)CCCN(C)CCC(=O)NCCCCCC(=O)OCC(CCCCCC)CCCCCCCC (centres unmarked) [Example 10] | 0.171 ± 0.006 | 118.2 ± 1.473 nm | 6.72 ± 0.073 mV | > 94.1%
CCCCCCCCC(CCCCCC)COC(=O)CCCCCNC(=O)CCN(CCC(=O)NCCCCCC(=O)OCC(CCCCCC)CCCCCCCC)CCN1CCOCC1 (centres unmarked) [Example 19] | 0.150 ± 0.022 | 146.7 ± 1.226 nm | -9.39 ± 0.137 mV | > 93.75%
CCCCCCC(CCCC)COC(=O)CCCCCNC(=O)CCN(C)CCCN(C)CCC(=O)NCCCCCC(=O)OCC(CCCC)CCCCCC (centres unmarked) [Example 4] | 0.231 ± 0.012 | 147.8 ± 0.979 nm | -7.87 ± 0.754 mV | > 93.75%
CCCCCCCCCCC(CCCCCCCC)COC(=O)CCCCCNC(=O)CCN(CCN)CCC(=O)NCCCCCC(=O)OCC(CCCCCCCC)CCCCCCCCCC (centres unmarked) [Example 14] | 0.166 ± 0.027 | 113.8 ± 0.502 nm | -10.39 ± 1.994 mV | > 93.75%
CCCCCCC(CCCCCC)COC(=O)CCCCCCCNC(=O)CCN(C)CCCN(C)CCC(=O)NCCCCCCCC(=O)OCC(CCCCCC)CCCCCC [Example 8] | 0.188 ± 0.007 | 110.3 ± 1.700 nm | 4.83 ± 0.301 mV | > 99.2%
CCCCCCCCCCCCC(CCCCCCCCCC)COC(=O)CCCCCNC(=O)CCN(CCN)CCC(=O)NCCCCCC(=O)OCC(CCCCCCCCCC)CCCCCCCCCCCC (centres unmarked) [Example 16] | 0.128 ± 0.015 | 128.9 ± 4.714 nm | 0.50 ± 3.461 mV | > 93.75%
CCCCCCCCC(OC(=O)CCCCCNC(=O)CCN(C)CCCN(C)CCC(=O)NCCCCCC(=O)OC(CCCCCCCC)C1CC1)C1CC1 (centres unmarked) [Example 22] | 0.3042 ± 0.026 | 121.0 ± 4.06 nm | 3.56 ± 3.67 mV | > 93.20%
CCCCOC(=O)CCCCCNC(=O)CCN(C)CCCN(C)CCC(=O)NCCCCCC(=O)OCCCC [Example 6] | 0.190 ± 0.011 | 125.9 ± 1.325 nm | -6.02 ± 2.949 mV | > 87.5%
CCCCCCCCCCC(CCCCCCCC)COC(=O)CCCCCNC(=O)CCN(C)CCCN(C)CCC(=O)NCCCCCC(=O)OCC(CCCCCCCC)CCCCCCCCCC (centres unmarked) [Example 7] | 0.215 ± 0.018 | 118.6 ± 2.099 nm | 2.04 ± 0.365 mV | > 93.75%
CCCCCCC(CCCCCC)COC(=O)CCCCCCCNC(=O)CCN(CCN)CCC(=O)NCCCCCCCC(=O)OCC(CCCCCC)CCCCCC [Example 15] | 0.186 ± 0.015 | 127.0 ± 0.325 nm | -0.40 ± 0.239 mV | > 93.75%

Source: EP4613738A1, “LIPID HAVING AMIDE AND ESTER FUNCTIONAL GROUPS, AND METHOD FOR PRODUCING SAME” (Samyang Holdings Corporation, priority 2022, dated 2024)
